Active and inactive are the calls of the source.
Assays:
Cytochrome P450 3A4 = Cytochrome P450 3A4 (Homo sapiens, UniProt P08684);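 also: CYP3A4 tested as one member of a cytochrome P450 panel screen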
Cytochrome P450 2C9 [1] = target: T1, Cytochrome P450 2C9 (Homo sapiens, UniProt P11712)
Escherichia coli = assay: microbe, parasite or virus in culture
Cytochrome P450 2C9 [2] = target: T1, Cytochrome P450 2C9; remark: listed apart in the source
[3] = MIN6 cell viability loss – mouse insulinoma, cytotoxicity control, dose response (AID 2122); type: functional;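 also: confirmatory high-throughput counterscreen run to flag cytotoxic compounds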
[4] = decrease of insulin promoter-GFP reporter – imaging, high-content screening, mouse beta cells (AID 1628); type: functional; conditions: MIN6
HEK293 [5] = assay: cells; conditions: Homo sapiens
HEK293 [6] = assay: cells; conditions: Homo sapiens; remark: listed apart in the source
[7] = target: Nucleotide-binding oligomerization domain-containing protein 2 (Homo sapiens, UniProt Q9HC29); assay: inhibition of NOD2-driven NF-kB reporter – cell-based, luminescence, uHTS, HEK293 (AID 1566); type: functional
HEK293 [8] = assay: inhibition of NOD1-driven NF-kB reporter – cell-based, luminescence, uHTS, primary screen (AID 1578); type: functional; conditions: Homo sapiens
[9] = luciferase reporter signal suppression in cells – H4 neuroglioma cells, luminescence, dose response (AID 1990); type: functional, cell-based
HEK293 [10] = assay: cells; type: functional, cell-based; conditions: Homo sapiens
HEK293 [11] = assay: NOD2 signaling inhibitors in MDP-stimulated cells, cell-based, uHTS, luminescence (AID 2001); type: functional; conditions: Homo sapiens
HEK293 [12] = assay: cells; type: functional, cell-based; conditions: Homo sapiens; remark: listed apart in the source
[13] = DRD fibroblast viability loss – cell-based, non-viral oncogenic, luminescence, dose response (AID 1934); type: functional; conditions: Homo sapiens
BJ [14] = assay: BJ-TERT fibroblast viability loss – cell-based, RAS-independent, luminescence, dose response (AID 1933); type: functional; conditions: Homo sapiens
[15] = alpha-synuclein stem-loop luciferase translation blockers – H4 neuroglioma cells, luminescence, confirmation (AID 1988); type: functional, cell-based
HEK293 [16] = assay: cells; type: functional, cell-based; conditions: Homo sapiens; remark: listed apart in the source
[17] = Luminescence Cell-Based Dose Response HTS to Identify Inhibitors of 5'UTR Stem-Loop Driven Prion Protein mRNA Translation in H4 Neuroglioblastoma Cells. [Related pubchem assays: 1827 (Project Summary), 1813 (Primary HTS)]; type: functional
BJ [18] = assay: cells; type: functional, cell-based; conditions: Homo sapiens
HeLa = assay: ATP-based viability loss in HeLa cells – cell-based, CellTiter-Glo luminescence, cherry-pick samples, cytotoxicity control for MITF activator project, dose response (AID 540259); type: functional; conditions: Homo sapiens
Cytochrome P450 2C19 = Cytochrome P450 2C19 (Homo sapiens, UniProt P33261); assay: Cytochrome panel assay with activity outcomes. Panel member name: p450-cyp2c19 Compounds with AC50 equal or less than 10 uM are considered active; type: functional
Cytochrome P450 2D6 = Cytochrome P450 2D6 (Homo sapiens, UniProt P10635);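 also: CYP2D6 member of a cytochrome P450 panel assay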
Cytochrome P450 1A2 = target: T2, Cytochrome P450 1A2 (Homo sapiens, UniProt P05177);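 also: PubChem cytochrome P450 panel assay, CYP1A2 panel member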
T2 sequence (P05177 whole entry): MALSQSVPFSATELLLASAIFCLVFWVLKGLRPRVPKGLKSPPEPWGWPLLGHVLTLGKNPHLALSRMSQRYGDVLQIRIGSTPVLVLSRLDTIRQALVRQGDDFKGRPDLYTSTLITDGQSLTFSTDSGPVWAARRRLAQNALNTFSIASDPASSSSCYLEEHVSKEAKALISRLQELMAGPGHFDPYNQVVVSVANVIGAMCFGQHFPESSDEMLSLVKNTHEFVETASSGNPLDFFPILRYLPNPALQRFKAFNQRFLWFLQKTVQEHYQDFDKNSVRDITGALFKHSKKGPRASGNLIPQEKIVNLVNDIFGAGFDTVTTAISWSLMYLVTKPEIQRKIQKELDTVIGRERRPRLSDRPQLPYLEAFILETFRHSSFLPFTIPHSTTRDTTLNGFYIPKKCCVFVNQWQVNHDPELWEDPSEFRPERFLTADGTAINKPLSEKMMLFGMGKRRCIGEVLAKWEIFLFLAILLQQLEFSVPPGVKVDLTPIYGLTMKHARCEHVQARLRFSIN

[19] = target: Glucose-6-phosphate 1-dehydrogenase (Homo sapiens, UniProt P11413); assay: inhibition of Homo sapiens G6PD, dose series – biochemical, fluorescence, selectivity assay for P. falciparum G6PD inhibitor project, dose response (AID 504792); type: functional
Chain of Glucose-6-phosphate 1-dehydrogenase (P11413 whole entry): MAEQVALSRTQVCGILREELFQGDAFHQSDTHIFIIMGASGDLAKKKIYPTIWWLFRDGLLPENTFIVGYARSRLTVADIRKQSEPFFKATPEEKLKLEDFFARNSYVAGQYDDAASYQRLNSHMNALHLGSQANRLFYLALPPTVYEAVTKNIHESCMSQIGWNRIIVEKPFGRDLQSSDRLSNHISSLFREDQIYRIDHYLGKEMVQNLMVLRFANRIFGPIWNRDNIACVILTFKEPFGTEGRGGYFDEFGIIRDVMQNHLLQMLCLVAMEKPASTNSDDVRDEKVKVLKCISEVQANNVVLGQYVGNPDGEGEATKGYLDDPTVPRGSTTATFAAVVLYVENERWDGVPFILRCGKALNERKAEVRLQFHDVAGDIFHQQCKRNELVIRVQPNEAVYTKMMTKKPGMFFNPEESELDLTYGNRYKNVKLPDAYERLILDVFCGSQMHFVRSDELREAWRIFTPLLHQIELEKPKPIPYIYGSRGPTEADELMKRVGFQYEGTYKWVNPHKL

T1 sequence (P11712 whole entry): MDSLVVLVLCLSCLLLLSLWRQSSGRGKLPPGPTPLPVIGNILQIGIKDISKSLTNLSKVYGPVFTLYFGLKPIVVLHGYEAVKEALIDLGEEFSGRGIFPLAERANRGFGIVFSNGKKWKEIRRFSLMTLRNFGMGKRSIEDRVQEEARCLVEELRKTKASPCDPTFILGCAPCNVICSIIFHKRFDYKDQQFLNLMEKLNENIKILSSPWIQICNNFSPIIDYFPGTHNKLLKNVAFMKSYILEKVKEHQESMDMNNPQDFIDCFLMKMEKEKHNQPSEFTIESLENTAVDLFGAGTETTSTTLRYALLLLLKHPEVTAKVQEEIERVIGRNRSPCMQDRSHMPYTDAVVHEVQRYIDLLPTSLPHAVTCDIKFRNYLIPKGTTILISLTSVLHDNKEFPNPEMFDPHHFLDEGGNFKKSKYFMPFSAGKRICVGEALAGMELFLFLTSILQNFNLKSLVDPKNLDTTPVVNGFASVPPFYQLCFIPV
Chain of Cytochrome P450 3A4 (P08684 whole entry): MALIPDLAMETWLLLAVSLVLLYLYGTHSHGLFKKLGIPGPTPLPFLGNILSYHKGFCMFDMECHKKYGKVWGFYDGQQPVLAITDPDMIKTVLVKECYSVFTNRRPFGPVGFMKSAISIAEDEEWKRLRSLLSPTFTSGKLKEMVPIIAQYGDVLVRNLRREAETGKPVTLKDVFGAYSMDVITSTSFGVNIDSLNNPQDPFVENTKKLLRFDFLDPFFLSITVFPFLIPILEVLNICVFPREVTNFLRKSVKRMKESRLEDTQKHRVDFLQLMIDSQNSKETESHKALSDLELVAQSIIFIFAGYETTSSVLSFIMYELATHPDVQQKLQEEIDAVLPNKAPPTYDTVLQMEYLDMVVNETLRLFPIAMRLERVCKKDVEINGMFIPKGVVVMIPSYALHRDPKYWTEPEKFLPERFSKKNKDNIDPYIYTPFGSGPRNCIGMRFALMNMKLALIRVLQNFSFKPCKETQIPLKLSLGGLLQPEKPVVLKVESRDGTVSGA
Chain of Cytochrome P450 2C19 (P33261 whole entry): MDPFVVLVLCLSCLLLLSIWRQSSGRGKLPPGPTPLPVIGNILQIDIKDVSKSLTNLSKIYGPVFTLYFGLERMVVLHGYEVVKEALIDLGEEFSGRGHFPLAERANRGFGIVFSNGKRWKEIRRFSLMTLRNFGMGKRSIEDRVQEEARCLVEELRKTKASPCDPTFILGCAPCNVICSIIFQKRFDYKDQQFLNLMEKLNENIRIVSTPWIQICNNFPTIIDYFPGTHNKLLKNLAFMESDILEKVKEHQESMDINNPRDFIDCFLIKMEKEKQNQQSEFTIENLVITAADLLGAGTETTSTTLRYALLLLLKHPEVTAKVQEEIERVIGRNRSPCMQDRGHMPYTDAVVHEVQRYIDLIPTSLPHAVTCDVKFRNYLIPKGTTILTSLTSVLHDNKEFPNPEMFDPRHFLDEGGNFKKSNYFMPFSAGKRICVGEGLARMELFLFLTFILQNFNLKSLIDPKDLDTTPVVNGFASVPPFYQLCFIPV
Chain of Cytochrome P450 2D6 (P10635 whole entry): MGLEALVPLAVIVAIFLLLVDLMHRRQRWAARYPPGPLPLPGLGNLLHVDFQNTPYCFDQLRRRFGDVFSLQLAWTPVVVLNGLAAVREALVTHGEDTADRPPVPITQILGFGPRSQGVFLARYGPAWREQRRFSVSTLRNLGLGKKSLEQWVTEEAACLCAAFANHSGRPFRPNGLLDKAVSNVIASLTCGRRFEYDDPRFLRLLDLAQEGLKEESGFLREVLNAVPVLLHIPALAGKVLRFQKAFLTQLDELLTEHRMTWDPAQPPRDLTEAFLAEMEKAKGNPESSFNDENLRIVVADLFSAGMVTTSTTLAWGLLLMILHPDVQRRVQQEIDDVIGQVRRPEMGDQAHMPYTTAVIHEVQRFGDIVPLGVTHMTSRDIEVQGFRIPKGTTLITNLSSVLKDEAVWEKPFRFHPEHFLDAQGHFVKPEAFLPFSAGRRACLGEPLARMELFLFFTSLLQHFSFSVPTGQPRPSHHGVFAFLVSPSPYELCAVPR
Chain of Nucleotide-binding oligomerization domain-containing protein 2 (Q9HC29 whole entry, the tested form may be a part): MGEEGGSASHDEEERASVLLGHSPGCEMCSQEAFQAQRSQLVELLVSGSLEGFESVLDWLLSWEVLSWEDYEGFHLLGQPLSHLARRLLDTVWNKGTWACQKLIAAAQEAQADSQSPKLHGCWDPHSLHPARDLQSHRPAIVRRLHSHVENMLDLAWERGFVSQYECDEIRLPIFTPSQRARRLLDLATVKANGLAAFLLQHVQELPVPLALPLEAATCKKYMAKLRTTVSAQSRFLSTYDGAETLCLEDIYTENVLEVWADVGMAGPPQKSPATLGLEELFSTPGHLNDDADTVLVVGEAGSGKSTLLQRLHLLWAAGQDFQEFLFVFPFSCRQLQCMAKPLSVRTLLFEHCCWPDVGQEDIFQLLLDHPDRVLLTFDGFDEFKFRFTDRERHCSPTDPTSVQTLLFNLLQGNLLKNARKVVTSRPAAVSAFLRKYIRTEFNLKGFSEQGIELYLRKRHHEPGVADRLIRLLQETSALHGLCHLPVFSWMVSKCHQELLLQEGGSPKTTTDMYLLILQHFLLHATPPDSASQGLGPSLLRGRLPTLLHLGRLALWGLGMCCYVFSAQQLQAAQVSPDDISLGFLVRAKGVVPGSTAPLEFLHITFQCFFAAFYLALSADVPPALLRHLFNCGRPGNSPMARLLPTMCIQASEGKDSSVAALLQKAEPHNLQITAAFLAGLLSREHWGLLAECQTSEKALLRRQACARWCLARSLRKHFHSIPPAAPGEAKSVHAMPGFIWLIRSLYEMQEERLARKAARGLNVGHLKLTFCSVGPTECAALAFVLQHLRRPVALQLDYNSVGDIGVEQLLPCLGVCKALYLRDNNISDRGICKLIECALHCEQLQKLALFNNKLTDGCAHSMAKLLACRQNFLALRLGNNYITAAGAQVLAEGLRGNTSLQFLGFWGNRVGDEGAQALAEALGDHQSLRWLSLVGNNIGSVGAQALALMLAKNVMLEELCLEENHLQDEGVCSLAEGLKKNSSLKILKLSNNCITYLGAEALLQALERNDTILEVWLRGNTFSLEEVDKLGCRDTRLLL

In the case of `Cn1c(=O)c(-c2cccc(C#N)c2)nc2cnc(Oc3ccccc3)nc21`, the AC50 (Cytochrome P450 3A4) is reported as “inconclusive”.
For `CC1(C)CC(NC(=O)c2ccc3c(c2)OCO3)CC(C)(C)N1`, the AC50 (Cytochrome P450 3A4) was “inconclusive” and the AC50 (Cytochrome P450 2C9 [1]) was 8.91 µM (inconclusive).
For `C[C@@H]1C(c2ccc(F)cc2)=NN(c2ccccc2)[C@H]1C(=O)N1CCOC1=O`, the AC50 (Escherichia coli) was 33.5 µM (active).
With `CC1CCCC(C)N1C(=O)c1cc(-c2ccc(Cl)c(Cl)c2)on1` (stereo unspecified) the AC50 (Cytochrome P450 2C9 [2]) was “inconclusive”.
For `Cc1nc2ccccn2c1C(=O)N=Nc1c(O)n(CCC(C)C)c2ccccc12`, the IC50 [3] was 2.72 µM (active) and the IC50 [4] was 1.67 µM (active).
With `CCCC(C)Sc1nc2c(=S)n(C)c(=O)n(C)c2[nH]1` (stereo unspecified) the EC50 (HEK293 [5]) was > 59.7 µM (inactive) and the EC50 (HEK293 [6]) was > 59.7 µM (inactive).
With `c1ccc2c3nc[nH]c(N4CCCC4)c-3nc2c1` the IC50 [3] was 3.1 µM (active) and the IC50 [4] was 3.72 µM (active).
In the case of `COc1ccc2c(c1[N+](=O)[O-])CCC/C2=N/OC(=O)c1cccc2ccccc12`, the AC50 (Cytochrome P450 2C9 [2]) is reported as “inconclusive”.
With `COc1ccc(OC)c(S(=O)(=O)NCCc2ccccc2)c1` the AC50 (Escherichia coli) was 28.4 µM (active).
For `O=C1C=C(c2ccccc2)C[C@H](c2cccs2)[C@H]1n1nnc([N+](=O)[O-])n1`, the EC50 [7] was 11 µM (active), the EC50 (HEK293 [8]) was 9.57 µM (active) and the EC50 [9] was 6.52 µM (active). The IC50 (HEK293 [10]) was > 20 µM (inactive), the IC50 (HEK293 [11]) was 9.37 µM (active) and the IC50 (HEK293 [12]) was > 20 µM (inactive). For the same compound, the EC50 [13] was 668 nM (active), the EC50 (BJ [14]) was 681 nM (active) and the EC50 [15] was 9.23 µM (active). For the same compound, the IC50 (HEK293 [16]) was > 20 µM (inactive), the EC50 [17] was 17.5 µM (active) and the EC50 (BJ [18]) was 1.11 µM (active).
With `CCCN1C(=O)C(=O)N(CC(=O)c2cc(C)n(C3CC3)c2C)C1=O` the AC50 (HeLa) was 62.6 µM (active).
For `CCCCCCCCCC[Si](C)(C)CCC(=O)N[C@@H](Cc1ccc(C)cc1)c1ccccc1`, the AC50 (Cytochrome P450 2C19) was “inconclusive”, the AC50 (Cytochrome P450 2D6) was 39.8 µM (inconclusive) and the AC50 (Cytochrome P450 2C9 [2]) was “inconclusive”. The AC50 (Cytochrome P450 1A2) was 31.6 µM (inconclusive).
In the case of `O=C1C=CC(=O)N1c1ccc(-c2nc3ccccc3o2)cc1`, the IC50 [19] is reported as > 80 µM (inactive).

— ChEMBL document CHEMBL1201862, “PubChem BioAssay data set” (2004)
